Measured values published in publication PMC10454678, “Synthesis of hydroxy benzoin/benzil analogs and investigation of their antioxidant, antimicrobial, enzyme inhibition, and cytotoxic activities” (Turkish Journal of Chemistry, 2021).
In brackets after ≈: the same amount, converted by molar mass. Where two headings read alike, the source gives them in different places.

Experiments:
[1] = test system: Enterococcus faecalis ATCC29212; assay: MIC, microdilution, E. faecalis; assay type: cell-based; conditions: Enterococcus faecalis, ATCC29212; Gram (+); Mueller-Hinton broth, 18-24 h, 36 °C; read-out: MIC Ef
[2] = test system: Staphylococcus aureus ATCC25923; assay: MIC, microdilution, S. aureus; assay type: cell-based; conditions: Staphylococcus aureus
[3] = test system: Yersinia pseudotuberculosis ATCC911; assay: microbe, parasite or virus in culture; assay type: cell-based; conditions: Yersinia pseudotuberculosis, ATCC911, read-out: MIC Yp
[4] = test system: Pseudomonas aeruginosa ATCC27853; assay: MIC, microdilution, P. aeruginosa; assay type: cell-based; conditions: Pseudomonas aeruginosa, ATCC27853; Gram (-); Mueller-Hinton broth, 18-24 h, 36 °C; read-out: MIC Pa
[5] = test system: Escherichia coli ATCC 25922; assay: MIC, microdilution, E. coli; assay type: cell-based; conditions: Escherichia coli
[6] = DPPH radical scavenging activity; conditions: 0.1 mM DPPH, 50 min dark, 517 nm
[7] = test system: Mycobacterium smegmatis ATCC607; assay: MIC, microdilution, M. smegmatis; assay type: cell-based; conditions: for MIC: Mycolicibacterium smegmatis, ATCC607, 72 h
[8] = test system: Bacillus cereus Roma709; assay: MIC, microdilution, B. cereus; assay type: cell-based; conditions: Bacillus cereus
[9] = biological target: α-glucosidase; assay: α-Glucosidase inhibition; assay type: biochemical; conditions: PNPG, pH 6.8, 37 °C, 400 nm
Procedure: It was incubated at 37 °C for 15 min. Similarly, an enzyme-free blank was prepared. The reaction was stopped when sodium carbonate (50 μL, 0.2 M) was added.

[10] = Copper ions reducing activity (CUPRAC); conditions: Trolox equivalents; 30 min dark, room temperature, 450 nm
[11] = biological target: butyrylcholinesterase (Homo sapiens, UniProt P06276); assay: biochemical; conditions: Tris-HCl pH 8.0, 25 °C, 405 nm; read-out: BChE IC50 (converted)
[12] = Ferric reducing antioxidant power (FRAP) assay; conditions: Trolox equivalents; compounds 2 mg/mL, 30 °C 30 min, 595 nm
[13] = test system: Candida albicans ATCC60193; assay: MIC, microdilution, C. albicans; assay type: cell-based; conditions: Candida albicans, ATCC60193; fungus; YEPD broth, 48 h, 36 °C; read-out: MIC Ca
[14] = biological target: acetylcholinesterase (Homo sapiens, UniProt P22303); assay: biochemical; conditions: Tris-HCl pH 8.0, 25 °C, 405 nm; read-out: AChE IC50 (converted)
[15] = ATCC25923, Gram (+), Mueller-Hinton broth, 18-24 h, 36 °C, read-out: MIC Sa
[16] = ATCC25922, Gram (-), Mueller-Hinton broth, 18-24 h, 36 °C, read-out: MIC Ec
[17] = Tub., BHI broth, 36 °C, read-out: MIC Ms

Sequence of acetylcholinesterase (P22303 32-614, species assumed): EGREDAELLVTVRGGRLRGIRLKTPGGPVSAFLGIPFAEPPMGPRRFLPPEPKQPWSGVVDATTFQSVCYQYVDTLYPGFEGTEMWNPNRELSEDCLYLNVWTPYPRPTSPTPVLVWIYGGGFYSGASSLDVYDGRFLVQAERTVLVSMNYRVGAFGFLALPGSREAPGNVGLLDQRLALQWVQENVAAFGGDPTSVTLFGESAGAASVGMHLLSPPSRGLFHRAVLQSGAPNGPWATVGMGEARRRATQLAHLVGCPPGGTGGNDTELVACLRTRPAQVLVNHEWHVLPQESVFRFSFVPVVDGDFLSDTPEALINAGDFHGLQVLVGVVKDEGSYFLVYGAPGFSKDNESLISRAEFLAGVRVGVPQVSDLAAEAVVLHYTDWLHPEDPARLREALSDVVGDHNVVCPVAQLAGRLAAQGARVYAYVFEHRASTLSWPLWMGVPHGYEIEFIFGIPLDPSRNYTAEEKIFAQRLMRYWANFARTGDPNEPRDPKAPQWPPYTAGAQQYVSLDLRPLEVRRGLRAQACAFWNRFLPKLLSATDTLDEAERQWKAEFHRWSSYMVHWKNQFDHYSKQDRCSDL
Sequence of butyrylcholinesterase (P06276 29-602): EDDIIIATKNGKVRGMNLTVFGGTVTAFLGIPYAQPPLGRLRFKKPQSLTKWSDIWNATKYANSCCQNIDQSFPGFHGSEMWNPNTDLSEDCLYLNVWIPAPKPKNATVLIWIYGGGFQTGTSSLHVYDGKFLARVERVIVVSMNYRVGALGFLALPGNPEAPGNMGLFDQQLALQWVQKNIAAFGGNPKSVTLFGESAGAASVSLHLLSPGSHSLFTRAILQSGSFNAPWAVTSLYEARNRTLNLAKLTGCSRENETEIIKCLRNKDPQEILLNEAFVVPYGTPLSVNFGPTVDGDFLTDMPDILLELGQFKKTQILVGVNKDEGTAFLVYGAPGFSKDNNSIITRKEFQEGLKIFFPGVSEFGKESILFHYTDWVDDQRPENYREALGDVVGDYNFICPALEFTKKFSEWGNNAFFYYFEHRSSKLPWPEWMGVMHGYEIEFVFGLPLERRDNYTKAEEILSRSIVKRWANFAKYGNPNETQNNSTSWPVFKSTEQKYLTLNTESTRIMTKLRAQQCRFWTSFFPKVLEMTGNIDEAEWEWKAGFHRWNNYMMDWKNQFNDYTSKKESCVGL

SMILES | MIC [1] [µg/mL] | MIC [2, 15] [µg/mL] | MIC [3] [µg/mL] | MIC [4] [µg/mL] | MIC [5, 16] [µg/mL] | DPPH radical scavenging capacity (SC50) [6] [mg/mL] | MIC [7, 17] [µg/mL] | MIC ([8]; ROMA709, read-out: MIC Bc) [µg/mL] | α-Glucosidase IC50 [9] [µg/mL] | CUPRAC, copper reducing antioxidant power [10] [μg/mL trolox/gram DW] | IC50 [11] [µM] | FRAP, the iron reducing antioxidant power [12] [μg/mL trolox/gram DW] | MIC [13] [µg/mL] | IC50 [14] [µM] | MIC ([2]; ATCC25923, read-out: MIC Sa) [µg/mL] | MIC ([5]; ATCC25922, read-out: MIC Ec) [µg/mL] | MIC Ms ([7]; Tub., BHI broth, 72 h, 36 °C) [µg/mL] | MIC ([8]; ROMA709, Gram (+), Mueller-Hinton broth, 18-24 h, 36 °C, read-out: MIC Bc) [µg/mL] | MIC ([7]; read-out: MIC Ms, Tub., BHI broth, 36 °C) [µg/mL]
CC1(C)S[C@@H]2[C@H](NC(=O)[C@H](N)c3ccccc3)C(=O)N2[C@H]1C(=O)O [Amp., Ampicillin, reference compound] | 10 (≈ 28.6 µM) | 35 (≈ 100 µM) | 18 (≈ 51.5 µM) | > 128 | 10 (≈ 28.6 µM) | – | – | – | – | – | – | – | – | – | – | – | – | – | –
Cc1cc(C(C)(C)C)c(O)c(C(C)(C)C)c1 [BHT, di-t-butylhydroxytoluene, reference compound] | – | – | – | – | – | 6.47 ± 0.12 | – | – | – | – | – | – | – | – | – | – | – | – | –
O=C(c1cccc(O)c1)C(O)c1ccccc1 (stereo not drawn) [Compound 1, 2-Hydroxy-1-(3-hydroxyphenyl)-2-phenylethanone] | – | – | 1320 (≈ 5780 µM) | – | 330 (≈ 1450 µM) | 15.21 ± 2.1 | 165 (≈ 723 µM) | 1320 (≈ 5780 µM) | 58.16 | 738.33 ± 12.5 | 1890 | 1238 ± 34.7 | 330 (≈ 1450 µM) | > 4380 | – | – | – | – | –
O=C(c1cc(O)cc(O)c1)C(O)c1cc(O)cc(O)c1 (stereo not drawn) [Compound 7, 1,2-Bis(3,5-dihydroxyphenyl)-2-hydroxyethanone] | 141 (≈ 510 µM) | – | 1140 (≈ 4110 µM) | 283 (≈ 1020 µM) | – | 10.85 ± 0.7 | 70 (≈ 253 µM) | 141 (≈ 510 µM) | >1000 | 95.00 ± 2.4 | > 3620 | 1715 ± 96.8 | 283 (≈ 1020 µM) | 443 | 283 (≈ 1020 µM) | 141 (≈ 510 µM) | – | – | –
O=C(C(=O)c1ccc(O)cc1)c1ccccc1 [Compound 9, 1-(4-Hydroxyphenyl)-2-phenylethane-1,2-dione] | 108 (≈ 477 µM) | – | 217 (≈ 959 µM) | 108 (≈ 477 µM) | – | 8.64 ± 0.5 | 108 (≈ 477 µM) | 108 (≈ 477 µM) | 47.78 | 48.33 ± 5.5 | > 4420 | 1946 ± 83.7 | 108 (≈ 477 µM) | 637 | 108 (≈ 477 µM) | 108 (≈ 477 µM) | – | – | –
O=C(C(=O)c1cc(O)cc(O)c1)c1ccccc1 [Compound 10, 1-(3,5-Dihydroxyphenyl)-2-phenylethane-1,2-dione] | – | 65 (≈ 268 µM) | 65 (≈ 268 µM) | 32 (≈ 132 µM) | 17 (≈ 70.2 µM) | 52.10 ± 0.4 | 9 to 18 (≈ 37.2 to 74.3 µM) | – | 100.08 | 455.00 ± 10.1 | > 4130 | 1830 ± 44.8 | 17 (≈ 70.2 µM) | 161 | – | – | 17 (≈ 70.2 µM) | 17 (≈ 70.2 µM) | –
O=C(C(=O)c1cc(O)cc(O)c1)c1cc(O)cc(O)c1 [Compound 14, 1,2-Bis(3,5-dihydroxyphenyl)ethane-1,2-dione] | 51 (≈ 186 µM) | – | 102 (≈ 372 µM) | 51 (≈ 186 µM) | – | 7.38 ± 1.0 | 51 (≈ 186 µM) | 102 (≈ 372 µM) | 87.10 | 133.33 ± 10.9 | > 3650 | 1974 ± 76.9 | 51 (≈ 186 µM) | 257 | – | 102 (≈ 372 µM) | – | – | –
O=C(c1cccc(OC2O[C@H](CO)[C@@H](O)[C@H](O)[C@H]2O)c1)C(O)c1ccccc1 (stereo partly drawn) [Compound 15, 2-Hydroxy-1-(3-O-β -D-glucopyranosylphenyl)-2-phenylethanone] | – | – | – | – | – | – | – | – | >1000 | 141.74 ±28.35 | > 2560 | 2311.04 ± 31.21 | 25 (≈ 64 µM) | 30.7 | – | – | – | – | –
O=C(c1ccc(OC2O[C@H](CO)[C@@H](O)[C@H](O)[C@H]2O)cc1)C(O)c1ccccc1 (stereo partly drawn) [Compound 16, 2-Hydroxy-1-(4-O-β -D-glucopyranosylphenyl)-2-phenylethanone] | – | – | – | – | – | 44.75 ± 3.04 | – | – | >1000 | 73.54 ± 17.36 | 484 | 1956.25 ± 48.13 | – | 399 | – | – | – | – | –
O=C(c1cc(OC2O[C@H](CO)[C@@H](O)[C@H](O)[C@H]2O)cc(OC2O[C@H](CO)[C@@H](O)[C@H](O)[C@H]2O)c1)C(O)c1ccccc1 (stereo partly drawn) [Compound 17, 2-Hydroxy-1-(3,5-Di-O-β -D-glucopyranosylphenyl)-2-phenylethanone] | – | – | – | – | – | 8.22 ± 1.08 | – | – | 193.40 | 287.40 ± 9.81 | > 1760 | 2647.92 ± 31.92 | – | > 1760 | – | – | – | – | –
O=C(c1ccc(OC2O[C@H](CO)[C@@H](O)[C@H](O)[C@H]2O)cc1)C(O)c1cccc(OC2O[C@H](CO)[C@@H](O)[C@H](O)[C@H]2O)c1 (stereo partly drawn) [Compound 19, 2-Hydroxy-1-(4-O-β -D-glucopyranosylphenyl)-2-(3-O-β -D-glucopyranosyl-phenyl)ethanone] | – | – | – | – | – | 8.86 ± 0.37 | – | – | 124.94 | 421.74 ± 24.39 | > 1760 | 2612.50 ± 37.04 | – | 18.5 | – | – | – | – | –
O=C(c1cc(OC2O[C@H](CO)[C@@H](O)[C@H](O)[C@H]2O)cc(OC2O[C@H](CO)[C@@H](O)[C@H](O)[C@H]2O)c1)C(O)c1cccc(OC2O[C@H](CO)[C@@H](O)[C@H](O)[C@H]2O)c1 (stereo partly drawn) [Compound 20, 2-Hydroxy-1-(3,5-di-O-β -D-glucopyranosylphenyl)-2-(3-O-β -D-glucopyranosylphenyl)ethanone] | – | – | – | – | – | 7.78 ± 0.12 | – | – | 48.25 | 775.58±12.34 | 254 | 2918.75±36.14 | – | > 1340 | – | – | – | – | –
O=C(C(=O)c1cc(OC2O[C@H](CO)[C@@H](O)[C@H](O)[C@H]2O)cc(OC2O[C@H](CO)[C@@H](O)[C@H](O)[C@H]2O)c1)c1ccccc1 (stereo partly drawn) [Compound 23, 1-(3,5-Di-O-β -D-glucopyranosylphenyl)-2-phenylethane-1,2-dione] | – | – | – | – | – | 17.74 ± 0.35 | – | – | >1000 | 273.67 ± 27.23 | > 1770 | 2267.50 ± 24.14 | – | 124 | – | – | – | – | –
O=C(C(=O)c1cccc(OC2O[C@H](CO)[C@@H](O)[C@H](O)[C@H]2O)c1)c1cccc(O)c1 (stereo partly drawn) [Compound 24, 1-(3-O-β -D-Glucopyranosylphenyl)-2-(3-hydroxyphenyl)ethane-1,2-dione] | – | – | – | – | – | 25.40 ± 0.19 | – | – | 58.90 | 251.46 ± 43.08 | 526 | 2401.25 ± 56.34 | – | 697 | – | – | – | – | 15 (≈ 37.1 µM)
OC(Cn1cncn1)(Cn1cncn1)c1ccc(F)cc1F [Flu., Fluconazole, reference compound] | – | – | – | – | – | – | – | – | – | – | – | – | < 8 | – | – | – | – | – | –
[H]/N=C(/N)N[C@H]1[C@H](O)[C@@H](O)[C@H](O[C@@H]2O[C@@H](C)[C@](O)(C=O)[C@H]2O[C@@H]2O[C@@H](CO)[C@H](O)[C@@H](O)[C@@H]2NC)[C@@H](N/C(N)=N\[H])[C@@H]1O [Strep., Streptomycin, reference compound] | – | – | – | – | – | – | 4 (≈ 6.88 µM) | – | – | – | – | – | – | – | – | – | – | – | –
